Patent US10300067B2, “Tetrahydropyridopyrimidine compound or salt thereof” (TAIHO PHARMACEUTICAL CO., LTD., priority 2014, dated 2019)

Experiments:
Type in all cases: cell-based
[1] = system: AR positive human prostate cancer cells VCaP; assay: Agonist activity for AR (cell proliferation rate of VCaP cells); settings: 72 hours, 2 to 10000 nmol/L, more than 10% at any concentration = agonist activity for AR
Protocol: AR positive human prostate cancer cells VCaP (In Vivo 15:163-168, 2001) were seeded in a clear bottom 96 well microplate (BD) at 1.5×10^4/well with phenol red free RPMI1640 containing 5% DCC-FBS (hereinbelow, the medium is referred to as an evaluation medium), and then cultured overnight. The culture was added with the evaluation medium containing the compound of Examples or the compound of Comparative Examples (final concentration of the compound of Examples or the compound of Comparative Examples: 2, 5, 14, 41, 123, 370, 1111, 3333, or 10000 nmol/L), followed by culture for 72 hours. Then, the number of viable cells was counted (test group). As a control, the cells were cultured after being added with the evaluation medium only, and the number of viable cells was counted (control group). The number of viable cells was measured by using CellTiter-Glo™ Luminescent Cell Viability Assay (Promega). From the measured number of viable cells, cell proliferation rate with respect to the compound of Examples or the compound of Comparative Examples was calculated based on the number of viable cells measured in the case of using the evaluation medium only. Cell proliferation rate (%) =(Number of viable cells in test group−Number of viable cells in control group)/(Number of viable cells in control group)×100
By considering an error in the number of viable cells measured in the case of using the evaluation medium only, when the cell proliferation rate was more than 10% at any concentration of the 9 concentrations which had been evaluated, it was determined to have an agonist activity for AR.

human androgen receptor = human androgen receptor (Homo sapiens (Human), UniProt P10275); assay: Antagonist activity for AR (pMMTV-luc reporter transcription activity in transfected COS-7 cells, DHT 1 nmol/L); settings: for IC50: 50% transcription activity inhibition concentration, COS-7 cells with pMMTV-luc and pEX-hAR, DHT 1 nmol/L, 24 hours
human androgen receptor, sequence (P10275 whole entry): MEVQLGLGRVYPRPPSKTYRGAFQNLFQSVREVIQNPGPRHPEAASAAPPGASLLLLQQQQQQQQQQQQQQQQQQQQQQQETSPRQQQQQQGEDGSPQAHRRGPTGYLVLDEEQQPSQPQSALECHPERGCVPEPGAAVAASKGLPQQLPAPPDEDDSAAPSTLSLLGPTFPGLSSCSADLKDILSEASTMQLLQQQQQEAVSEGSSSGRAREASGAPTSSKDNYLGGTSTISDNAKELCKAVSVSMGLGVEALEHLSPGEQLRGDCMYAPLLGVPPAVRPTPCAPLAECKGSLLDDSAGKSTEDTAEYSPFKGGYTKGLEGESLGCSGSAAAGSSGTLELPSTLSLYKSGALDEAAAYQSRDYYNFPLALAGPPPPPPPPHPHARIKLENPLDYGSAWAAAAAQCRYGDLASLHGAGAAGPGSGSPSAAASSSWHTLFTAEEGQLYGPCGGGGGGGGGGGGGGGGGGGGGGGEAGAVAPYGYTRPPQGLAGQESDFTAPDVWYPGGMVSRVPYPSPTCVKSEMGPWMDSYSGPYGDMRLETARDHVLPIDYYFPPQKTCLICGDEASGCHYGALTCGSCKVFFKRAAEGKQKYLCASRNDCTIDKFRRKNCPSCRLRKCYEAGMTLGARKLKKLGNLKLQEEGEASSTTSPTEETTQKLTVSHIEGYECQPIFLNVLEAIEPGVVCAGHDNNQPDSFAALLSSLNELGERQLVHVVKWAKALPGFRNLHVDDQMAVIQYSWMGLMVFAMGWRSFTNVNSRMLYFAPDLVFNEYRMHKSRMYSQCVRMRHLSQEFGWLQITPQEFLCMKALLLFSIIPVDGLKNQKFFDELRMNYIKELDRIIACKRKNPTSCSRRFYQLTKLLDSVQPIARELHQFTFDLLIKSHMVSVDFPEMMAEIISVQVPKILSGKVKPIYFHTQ
Protocol: Antagonist activity for AR was evaluated according to the following method. COS-7 cells (ATCC) were transfected with pMMTV-luc vector (reporter plasmid having, as an androgen response element, […] long terminal repeat) and pEX-hAR vector (human androgen receptor expression vector: which expresses human AR gene under control of CMV promoter) by using Nucleofector (registered trademark) Kit R (Lonza) as a transfection reagent and Amaxa (Lonza). The COS-7 cells obtained after transfection were seeded in a clear bottom 96 well microplate (BD) at 1.5×10^4/well with phenol red free RPMI1640 containing 10% charcoal-treated fetal bovine serum (hereinbelow, DCC-FBS) (hereinbelow, the medium is referred to as an evaluation medium), and then cultured overnight. […] Then, the transcription activity value was measured. The transcription activity was measured by using Bright-Glo™ Luciferase Assay System (Promega).

androgen receptor = androgen receptor (Homo sapiens (Human), UniProt P10275, T878A); assay: Activity of reducing expression level of androgen receptor (Western blotting of LNCaP cell lysate); settings: 48 hours
androgen receptor, sequence (P10275 whole entry T878A): as the sequence (P10275 whole entry) above, with T878A counted along it
Protocol: AR positive human prostate cancer cells LNCaP were seeded in a clear bottom 6 well microplate (BD) at 3.5×10^5/well with phenol red free RPMI1640 containing 5% FBS (hereinbelow, the medium is referred to as an evaluation medium), and then cultured overnight. The culture was added with the evaluation medium containing the compound of Examples or the compound of Comparative Examples such that the final concentration of the compound of Examples or the compound of Comparative Examples was 10000 nmol/L, followed by culture for 48 hours. After culture for 48 hours, the medium was removed and the cells were washed with PBS and added with 0.1 mL of Lysis buffer (M-PER added with Protease Inhibitor Cocktail), followed by keeping at 4° C. for 20 minutes. After cell lysis, the cell solution was centrifuged to recover the supernatant as cell lysate. […] The antibody-reacting band (anti AR receptor) was quantified by LAS-3000 (FUJIFILM) using Super Signal West Pico Substrate (Thermo Scientific) as a detection reagent.

| Compound | Cell proliferation rate (%) [1] [%] | IC50 (human androgen receptor) [µM] | 10 μM AR expression reducing activity (androgen receptor) | antagonist activity for AR (in words) (human androgen receptor; COS-7 reporter assay) |
| --- | --- | --- | --- | --- |
| COc1ccc(Nc2ncnc3c2CCN(c2ccc(C#N)c(C(F)(F)F)c2)C3)cc1 [Example 3, 4-(4-((4-Methoxyphenyl)amino)-5,6-dihydropyrido[3,4-d]pyrimidin-7(8H)-yl)-2-(trifluoromethyl)benzonitrile] | 1.0 | 0.53 | reduced (When the AR expression reducing activity is 50% or more, it is described as “reduced”) | – |
| CC(C)(O)c1ccc(Nc2ncnc3c2CCN(c2ccc(C#N)c(C(F)(F)F)c2)C3)cc1 [Example 57] | 5.0 | – | reduced (When the AR expression reducing activity is 50% or more, it is described as “reduced”) | – |
| CC(C)(COc1ncc(Nc2ncnc3c2CCN(c2ccc(C#N)c(C(F)(F)F)c2)C3)cc1Cl)n1cnnn1 [Example 52, 4-(4-((5-Chloro-6-(2-methyl-2-(1H-tetrazol-1-yl)propoxy)pyridin-3-yl)amino)-5,6-dihydropyrido[3,4-d]pyrimidin-7(8H)-yl)-2-(trifluoromethyl)benzonitrile] | −3.4 | 0.15 | reduced (When the AR expression reducing activity is 50% or more, it is described as “reduced”) | – |
| CC(C)(COc1ncc(Nc2ncnc3c2CCN(c2ccc(C#N)c(C(F)(F)F)c2)C3)cc1F)n1cnnn1 [Example 50, 4-(4-((5-Fluoro-6-(2-methyl-2-(1H-tetrazol-1-yl)propoxy)pyridin-3-yl)amino)-5,6-dihydropyrido[3,4-d]pyrimidin-7(8H)-yl)-2-(trifluoromethyl)benzonitrile] | −3.7 | 0.32 | reduced (When the AR expression reducing activity is 50% or more, it is described as “reduced”) | – |
| CC(C)(O)c1cnc(Nc2ncnc3c2CCN(c2ccc(C#N)c(C(F)(F)F)c2)C3)cc1F [Example 47, 4-(4-((4-Fluoro-5-(2-hydroxypropan-2-yl)pyridin-2-yl)amino)-5,6-dihydropyrido[3,4-d]pyrimidin-7 (8H)-yl)-2-(trifluoromethyl)benzonitrile] | 1.9 | 0.07 | reduced (When the AR expression reducing activity is 50% or more, it is described as “reduced”) | – |
| CC(C)(O)c1sc(Nc2ncnc3c2CCN(c2ccc(C#N)c(C(F)(F)F)c2)C3)nc1C(F)(F)F [Example 8, 4-(4-((5-(2-Hydroxypropan-2-yl)-4-(trifluoromethyl)thiazol-2-yl)amino)-5,6-dihydropyrido[3,4-d]pyrimidin-7(8H)-yl)-2-(trifluoromethyl)benzonitrile] | – | 0.25 | reduced (When the AR expression reducing activity is 50% or more, it is described as “reduced”) | – |
| CC(C)(COc1ncc(Nc2ncnc3c2CCN(c2ccc(C#N)c(C(F)(F)F)c2)C3)cc1F)n1ccnn1 [Example 51, 4-(4-((5-Fluoro-6-(2-methyl-2-(1H-1,2,3-triazol-1-yl)propoxy)pyridin-3-yl)amino)-5,6-dihydropyrido[3,4-d]pyrimidin-7(8H)-yl)-2-(trifluoromethyl)benzonitrile] | −5.4 | 1.1 | reduced (When the AR expression reducing activity is 50% or more, it is described as “reduced”) | – |
| N#Cc1ccc(N2CCc3c(ncnc3Nc3ccc(C4(O)CC4)cn3)C2)cc1C(F)(F)F [Example 12, 4-(4-((5-(1-Hydroxycyclopropyl)pyridin-2-yl)amino)-5,6-dihydropyrido[3,4-d]pyrimidin-7(8H)-yl)-2-(trifluoromethyl)benzonitrile] | – | 0.17 | reduced (When the AR expression reducing activity is 50% or more, it is described as “reduced”) | – |
| CC(C)Oc1ccc(Nc2nnc3n2CCN(c2ccc(C#N)c(C(F)(F)F)c2)C3)cc1 [Comparative Example 3, 4-(3-((4-Isopropoxyphenyl)amino)-5,6-dihydro[1,2,4]triazolo[4,3-a]pyrazin-7(8H)-yl)-2-(trifluoromethyl)benzonitrile, reference compound] | – | > 10 | <10% | no antagonist activity for AR |
| C[C@@H](NC(=O)c1sc(Nc2ncnc3c2CCN(c2ccc(C#N)c(C(F)(F)F)c2)C3)nc1C(F)(F)F)c1nnco1 [Example 37, (R)—N-(1-(1,3,4-Oxadiazol-2-yl)ethyl)-2-((7-(4-cyano-3-(trifluoromethyl)phenyl)-5,6,7,8-tetrahydropyrido[3,4-d]pyrimidin-4-yl)amino)-4-(trifluoromethyl) thiazol-5-carboxamide] | 0.9 | 0.17 | reduced (When the AR expression reducing activity is 50% or more, it is described as “reduced”) | – |
| CC(C)(O)c1ccc(Nc2ncnc3c2CCN(c2ccc(C#N)c(Cl)c2)C3)nc1F [Example 46, 2-Chloro-4-(4-((6-fluoro-5-(2-hydroxypropan-2-yl)pyridin-2-yl)amino)-5,6-dihydropyrido[3,4-d]pyrimidin-7 (8H)-yl)benzonitrile] | 1.0 | 0.25 | reduced (When the AR expression reducing activity is 50% or more, it is described as “reduced”) | – |
| N#Cc1ccc(N2CCc3c(ncnc3Nc3cccc(-c4ccccc4)c3)C2)cc1C(F)(F)F [Example 4, 4-(4-((1,1′-Biphenyl)-3-ylamino)-5,6-dihydropyrido[3,4-d]pyrimidin-7(8H)-yl)-2-(trifluoromethyl)benzonitrile] | – | 0.62 | reduced (When the AR expression reducing activity is 50% or more, it is described as “reduced”) | – |
| CC(C)(O)c1ccc(Nc2ncnc3c2CCN(c2ccc(C#N)c(Br)c2)C3)nc1 [Example 44, 2-Bromo-4-(4-((5-(2-hydroxypropan-2-yl)pyridin-2-yl)amino)-5,6-dihydropyrido[3,4-d]pyrimidin-7(8H)-yl)benzonitrile] | 5.2 | 0.05 | reduced (When the AR expression reducing activity is 50% or more, it is described as “reduced”) | – |
| N#Cc1ccc(N2CCc3c(ncnc3Nc3nc(C(F)(F)F)c(C(=O)NCC(F)(F)F)s3)C2)cc1C(F)(F)F [Example 26, 2-((7-(4-Cyano-3-(trifluoromethyl)phenyl)-5,6,7,8-tetrahydropyrido[3,4-d]pyrimidin-4-yl)amino)-N-(2,2,2-trifluoroethyl)-4-(trifluoromethyl)thiazol-5-carboxamide] | 5.7 | 0.06 | reduced (When the AR expression reducing activity is 50% or more, it is described as “reduced”) | – |
| N#Cc1ccc(N2CCc3c(ncnc3Nc3ccc(C(=O)NCC(F)(F)F)nn3)C2)cc1Cl [Example 49, 6-((7-(3-Chloro-4-cyanophenyl)-5,6,7,8-tetrahydropyrido[3,4-d]pyrimidin-4-yl)amino)-N-(2,2,2-trifluoroethyl)pyridazine-3-carboxamide] | – | 0.002 | reduced (When the AR expression reducing activity is 50% or more, it is described as “reduced”) | – |
| C[C@@H](NC(=O)c1nnc(Nc2ncnc3c2CCN(c2ccc(C#N)c(C(F)(F)F)c2)C3)s1)c1nnco1 [Example 39, (R)—N-(1-(1,3,4-Oxadiazol-2-yl)ethyl)-5-((7-(4-cyano-3-(trifluoromethyl)phenyl)-5,6,7,8-tetrahydropyrido[3,4-d]pyrimidin-4-yl)amino)-1,3,4-thiadiazol-2-carboxamide] | 5.5 | 2.05 | reduced (When the AR expression reducing activity is 50% or more, it is described as “reduced”) | – |
